Some test systems named below: IGROV1 ovarian; KM20L2 colon; M14 melanoma; NCI-H460 lung; OVCAR-5 ovarian; SF-268 CNS; SF-295 CNS; M19-MEL melanoma; SK-MEL-5 melanoma; NCI-H226 lung.
Holding throughout (assay): DTP human tumour cell line panel, 48 h

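Assay format: 96-well plates, 48-hour exposure. The concentration for 50% growth inhibition is given as GI50. TGI marks complete inhibition of growth.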

For 17 molecules, TGI and GI50 results are on record in PubChem BioAssay (NCI).

The term TGI denotes the concentration giving total growth inhibition. For orientation: GI50 means the concentration that inhibits growth by half.

In the case of `COC(=O)/C=C(C)/C=C/c1cc(C(C)=O)c(C)o1`, the TGI in the assay with IGROV1 ovarian, in the assay with KM20L2 colon, with M14 melanoma, in the assay on NCI-H460 lung, in the assay on OVCAR-5 ovarian and in the assay with SF-268 CNS was more than 100 µM in each case. The TGI with SF-295 CNS was more than 100 µM.

Regarding `C=CC[C@H]1C[C@@]2(C)OC[C@H](C(C)C)N2C1=O`, the TGI with IGROV1 ovarian, in the assay with KM20L2 colon, in the assay on M19-MEL melanoma, with NCI-H460 lung, with OVCAR-5 ovarian and in the assay with SF-268 CNS was more than 100 µM throughout. The TGI in the assay with SF-295 CNS and with SK-MEL-5 melanoma was more than 100 µM in each case.

As to `CCCCCCCCCNCCCCCCCCC`, the GI50 is 1.89 µM in the assay on IGROV1 ovarian; 1.76 µM in the assay with M14 melanoma; 1.83 µM in the assay with NCI-H226 lung; 1.93 µM in the assay on NCI-H460 lung; 1.88 µM in the assay on OVCAR-5 ovarian; 2.29 µM with SF-268 CNS. In addition, the GI50 with SF-295 CNS was 1.74 µM; with SK-MEL-5 melanoma it was 1.77 µM. In addition, the TGI in the assay on IGROV1 ovarian worked out at 3.8 µM; in the assay with M14 melanoma, 3.19 µM; with NCI-H226 lung it was 3.61 µM; in the assay on NCI-H460 lung, 3.65 µM; with OVCAR-5 ovarian it was 3.91 µM; in the assay with SF-268 CNS, 5.28 µM. Besides, the values for the TGI in the assay with SF-295 CNS and in the assay on SK-MEL-5 melanoma were 3.29 µM and 3.2 µM, respectively.

Consider `COc1ccc(C2S/C(=C\c3cc(OC)c(OC)c(OC)c3)C(=O)N2NC(=O)Cc2ccccc2)cc1` (stereo not drawn), for which the TGI in the assay with IGROV1 ovarian, in the assay on M14 melanoma, in the assay with M19-MEL melanoma, in the assay on NCI-H226 lung, with NCI-H460 lung and in the assay on OVCAR-5 ovarian was more than 100 µM throughout. Also, the TGI in the assay on SF-268 CNS, with SF-295 CNS and with SK-MEL-5 melanoma was more than 100 µM in each case.

`Cc1cccc(C)c1NC(=O)CCCC(=O)CC(=O)/C=C/c1ccccc1`: the TGI in the assay on IGROV1 ovarian, with KM20L2 colon, in the assay on M14 melanoma, in the assay with M19-MEL melanoma, in the assay with NCI-H460 lung and with OVCAR-5 ovarian was more than 100 µM throughout. Moreover, the TGI with SF-268 CNS and in the assay with SK-MEL-5 melanoma was more than 100 µM throughout.

`CC([C@H]1CCC2C3CCC4C[C@@H](NC=O)CC[C@]4(C)C3CC[C@@]21C)N(C)C` (stereo partly drawn): the GI50 with IGROV1 ovarian was 4.81 µM; with M14 melanoma, 1.87 µM; in the assay with NCI-H226 lung, 5.47 µM; with NCI-H460 lung, 1.89 µM; with OVCAR-5 ovarian it was 6.87 µM; in the assay on SF-268 CNS, 1.7 µM. The GI50 in the assay on SF-295 CNS is 2.14 µM; with SK-MEL-5 melanoma, 1.37 µM. Moreover, the total growth inhibition concentration (TGI) with IGROV1 ovarian was 18.2 µM; with M14 melanoma it was 3.55 µM; in the assay with NCI-H226 lung, 21 µM; in the assay with NCI-H460 lung, 4.04 µM; in the assay on OVCAR-5 ovarian, 19.3 µM; in the assay with SF-268 CNS, 3.93 µM. Moreover, the results for the TGI in the assay on SF-295 CNS and in the assay on SK-MEL-5 melanoma were 5.58 µM and 2.74 µM, respectively.

Take `Cc1cc(C)c(O)c(CNCCCCCCNCc2cc(C)cc(C)c2O)c1`: the GI50 in the assay on IGROV1 ovarian is 1.68 µM; in the assay with M14 melanoma it was 1.72 µM; in the assay on NCI-H226 lung it was 1.83 µM; with NCI-H460 lung, 1.89 µM; with OVCAR-5 ovarian, 1.82 µM; in the assay with SF-268 CNS, 1.61 µM. In addition, the figures for the GI50 in the assay with SF-295 CNS and with SK-MEL-5 melanoma were 1.78 µM and 1.61 µM, respectively. In addition, the TGI with IGROV1 ovarian worked out at 3.49 µM; with M14 melanoma, 3.59 µM; in the assay on NCI-H226 lung it was 3.72 µM; in the assay on NCI-H460 lung, 3.58 µM; in the assay with OVCAR-5 ovarian it was 4.31 µM; in the assay on SF-268 CNS it was 3.36 µM. Moreover, the TGI with SF-295 CNS worked out at 3.46 µM; in the assay on SK-MEL-5 melanoma, 3.09 µM.

Regarding `C=C1C[C@@H]2C/C=C/C(=O)C/C(C)=C\C=C\C(=O)O[C@H](C=O)C/C(C)=C/[C@H](C1)O2`, the GI50 in the assay with IGROV1 ovarian is 1.16 µM; with M14 melanoma it was 0.281 µM; with NCI-H226 lung it was 8.49 µM; in the assay on NCI-H460 lung, 3.07 µM; in the assay on OVCAR-5 ovarian, 2.31 µM; with SF-268 CNS, 1.39 µM. Besides, the GI50 was 3.26 µM in the assay on SF-295 CNS and 2.62 µM in the assay on SK-MEL-5 melanoma. Moreover, the TGI is 21.7 µM in the assay on IGROV1 ovarian; 0.738 µM in the assay on M14 melanoma; 49 µM with NCI-H226 lung; 16.7 µM in the assay with NCI-H460 lung; 13.5 µM with OVCAR-5 ovarian; 19.6 µM with SF-268 CNS. For the same molecule, the TGI was determined as 43.2 µM with SF-295 CNS and 16.6 µM in the assay on SK-MEL-5 melanoma.

Take `CCN1C(=O)N(CC)C2C1NN=c1s/c(=C3\C(=O)N(CC(C)C)c4ccccc43)c(=O)n12` (stereo not drawn): the GI50 with IGROV1 ovarian is 0.808 µM; in the assay on M14 melanoma, 0.445 µM; in the assay with NCI-H226 lung, 2.39 µM; in the assay on NCI-H460 lung it was 0.471 µM; in the assay with OVCAR-5 ovarian, 2.27 µM; in the assay on SF-268 CNS it was 1.32 µM. For the same molecule, the figures for the GI50 in the assay on SF-295 CNS and with SK-MEL-5 melanoma were 0.542 µM and 0.436 µM, respectively. Moreover, the TGI is more than 55.7 µM in the assay with IGROV1 ovarian; more than 100 µM in the assay with M14 melanoma; more than 100 µM with NCI-H226 lung; more than 100 µM in the assay on NCI-H460 lung; more than 100 µM with OVCAR-5 ovarian; more than 59.9 µM in the assay with SF-268 CNS. In addition, the figures for the TGI with SF-295 CNS and in the assay with SK-MEL-5 melanoma were 11.4 µM and more than 100 µM, respectively.

With `CN(C)CCCN=C(N)N`, the TGI in the assay on IGROV1 ovarian, with M14 melanoma, in the assay with NCI-H226 lung, in the assay with NCI-H460 lung, with OVCAR-5 ovarian and in the assay on SF-268 CNS was more than 100 µM each time. The TGI with SF-295 CNS and in the assay with SK-MEL-5 melanoma was more than 100 µM in each case.

`c1nc2cscc2c2cscc12`: the TGI in the assay with IGROV1 ovarian, in the assay on M14 melanoma, in the assay with M19-MEL melanoma, with NCI-H226 lung, in the assay with NCI-H460 lung and in the assay on OVCAR-5 ovarian was more than 100 µM in each case. Also, the total growth inhibition concentration (TGI) with SF-268 CNS and in the assay with SF-295 CNS was more than 100 µM throughout.

Turning to `CC1(C)COCN1COC1CCCCC1`, the TGI with IGROV1 ovarian, with M14 melanoma, in the assay with NCI-H226 lung, in the assay on NCI-H460 lung, with OVCAR-5 ovarian and in the assay with SF-268 CNS was more than 100 µM in each case. Besides, the TGI in the assay on SF-295 CNS and with SK-MEL-5 melanoma was more than 100 µM each time.

Turning to `N#Cc1ccccc1NC(=O)/C(=N\NC(=O)c1ccncc1)C(c1cnc2ccc([N+](=O)[O-])cc2n1)[N+](=O)[O-]` (stereo not drawn), the TGI in the assay with IGROV1 ovarian, with M14 melanoma, in the assay on NCI-H226 lung, with NCI-H460 lung, in the assay on OVCAR-5 ovarian and in the assay with SF-268 CNS was more than 100 µM each time. Besides, the total growth inhibition concentration (TGI) in the assay with SF-295 CNS and with SK-MEL-5 melanoma was more than 100 µM in each case.

Regarding `O=C1CCCCCCCC/C=C/CCC(c2ccco2)O1` (stereo not drawn), the GI50 in the assay on IGROV1 ovarian was 51.2 µM; with M14 melanoma, 67.7 µM; in the assay with NCI-H226 lung, 34.8 µM; in the assay with NCI-H460 lung it was more than 100 µM; with OVCAR-5 ovarian it was more than 100 µM; in the assay with SF-268 CNS, 44.3 µM. Besides, the values for the GI50 in the assay on SF-295 CNS and in the assay with SK-MEL-5 melanoma were 18.6 µM and 44 µM, respectively. Besides, the TGI in the assay on IGROV1 ovarian, in the assay on M14 melanoma, with NCI-H226 lung, in the assay on NCI-H460 lung, with OVCAR-5 ovarian and in the assay with SF-268 CNS was more than 100 µM throughout. In addition, the TGI with SF-295 CNS and with SK-MEL-5 melanoma was more than 100 µM in each case.

As for `COC(=O)NC/C=C\c1nc(CC/C=C\C(=O)OC2CC3CC(=O)O[C@H](/C=C/CC(C)C)C[C@H]4CCC(C)C(C[C@H](OC)CC(C2)O3)O4)co1` (stereo partly drawn), the GI50 is 2.51 µM in the assay with IGROV1 ovarian; 4.27 µM in the assay on M14 melanoma; 12.9 µM with NCI-H226 lung; less than 0.01 µM in the assay with NCI-H460 lung; 0.877 µM in the assay on OVCAR-5 ovarian; less than 0.01 µM in the assay on SF-268 CNS. In addition, the 50% growth inhibitory concentration (GI50) in the assay on SF-295 CNS and in the assay on SK-MEL-5 melanoma was less than 0.01 µM in each case. Besides, the TGI with IGROV1 ovarian was more than 100 µM; in the assay with M14 melanoma it was more than 100 µM; with NCI-H226 lung, more than 100 µM; with NCI-H460 lung, 63.5 µM; with OVCAR-5 ovarian, more than 100 µM; with SF-268 CNS, 24.3 µM. Also, the values for the TGI in the assay on SF-295 CNS and in the assay on SK-MEL-5 melanoma were 61.5 µM and 19.3 µM, respectively.

On to `N#CC1=C(N)NC(=S)NC12Nc1ccccc1O2` (stereo not drawn), for which the GI50 in the assay on IGROV1 ovarian is 3.17 µM; with M14 melanoma, 26 µM; with NCI-H226 lung, 30.5 µM; in the assay with NCI-H460 lung, 65.5 µM; in the assay on OVCAR-5 ovarian it was 40.7 µM; in the assay on SF-268 CNS, 51.2 µM. For the same molecule, the figures for the GI50 in the assay on SF-295 CNS and with SK-MEL-5 melanoma were 38.4 µM and 27.1 µM, respectively. Moreover, the TGI with IGROV1 ovarian was 24.9 µM; in the assay with M14 melanoma, more than 100 µM; in the assay with NCI-H226 lung, more than 100 µM; with NCI-H460 lung, more than 100 µM; with OVCAR-5 ovarian it was more than 100 µM; in the assay on SF-268 CNS, more than 100 µM. Further, the total growth inhibition concentration (TGI) in the assay on SF-295 CNS was more than 100 µM; with SK-MEL-5 melanoma, 85.4 µM.

As to `COC(=O)COc1ccc(/C=C2\N=C(c3ccccc3)N(c3cc(C(F)(F)F)ccc3Cl)C2=O)cc1`, the GI50 is 29.1 µM in the assay with IGROV1 ovarian; 50.6 µM in the assay on M14 melanoma; 52.2 µM in the assay with NCI-H226 lung; more than 100 µM in the assay with NCI-H460 lung; more than 100 µM in the assay with OVCAR-5 ovarian; 48.4 µM with SF-268 CNS. Moreover, the GI50 in the assay on SF-295 CNS was more than 100 µM; in the assay on SK-MEL-5 melanoma it was 46.1 µM. Besides, the total growth inhibition concentration (TGI) in the assay with IGROV1 ovarian, in the assay with M14 melanoma, in the assay on NCI-H226 lung, in the assay on NCI-H460 lung, in the assay with OVCAR-5 ovarian and in the assay with SF-268 CNS was more than 100 µM throughout. The TGI in the assay on SF-295 CNS and in the assay on SK-MEL-5 melanoma was more than 100 µM in each case.
